Several values for one entry are separate records, joined by “and”; a condition that tells them apart may be missing. Equal entries are not always repeated.
Key:
[1] = system: C3-PMP22 transgenic mice (CMT1A); experiment: Rotarod test, CMT1A mouse study (50 mg/kg twice daily); format: in vivo; details: for Rotarod latency, Mean/animal / Rotarod latency, set 1, individual animals / Rotarod latency, set 2, individual animals / Rotarod latency, set 3, individual animals: CMT1A + AAT; for Rotarod latency (Mean ± SEM): CMT1A mice
Excerpt: As a murine model of CMT1A we used C3-PMP22 transgenic mice (B6.Cg-Tg(PMP22)C3Fbas/J, The Jackson Laboratory) which express three copies of a wild-type human peripheral myelin protein 22 (PMP22) gene (Verhamme, Camiel, et al. Journal of Neuropathology & Experimental Neurology 70.5 (2011): 386-398). Mice were housed in macrolon cages with filter hoods, in a continuously air-filtered room, thereby avoiding contamination. During experiments, paired animals were caged at a constant temperature with a day/night cycle of 12/12 hours. Animals were fed (control tap water and nutrition) ad libitum. Animal protocol is approved by the Animal Studies Committee of Languedoc Roussillon. This protocol and the laboratory procedures comply with French legislation, which implements the European Directives (Reference Number: D3417223, APAFIS #23920-2020020320279696 v3). Animal health was followed on a daily basis to ensure that only animals in good health enter the testing procedures and follow up the study.
Animals were split in 3 groups (wild-type control (subcutaneous 0.9% NaCl), CMT1A-vehicle (subcutaneous 0.9% NaCl), CMT1A-human alpha-1 antitrypsin (subcutaneous, twice daily, 50 mg/kg per injection)) of 3 mice each (3 weeks old males of 18±2.5 g at the beginning of study) and all went through the following protocol after 7 days of acclimation on site.
On the first and last day of treatment, the neuromuscular performance of animals was tested with a rotarod test, grip test and sciatic nerve electrophysiology test. After the last treatment at 8 weeks, these tests were repeated, and animals were sacrificed and the left sciatic nerve was sampled for histological evaluation of the number and size of […].
The rotarod test measures neuromuscular coordination by assessing the capacity of the animals to stay in balance on a rotating cylinder. Similar rotarod latency was observed between groups at the baseline (6 weeks old).

CIDP mice = experiment: Sciatic nerve electrophysiology (CMAP, NCV), CIDP mouse model; format: in vivo; details: for Compound muscle action potential (Mean ± SD) / Nerve conduction velocity (Mean ± SD): CIDP mice; for Electrophysiology, Amplitude / Electrophysiology, Conduction velocity / Electrophysiology, T1 distal / Electrophysiology, T2 proximal: per mouse, listed as hAAT
Description: C57BL/6 mice were received at 8 weeks of age and housed under controlled conditions for the duration of the study. Three groups of 4 animals each were assigned to the following subcutaneous treatments twice daily at 7:00 AM and 7:00 PM for 2 weeks, from 20 to 35 days after the start of disease induction: • Wild type (WT) mice receiving the vehicle, 0.9% NaCl (positive control) • CIDP mice receiving the vehicle, 0.9% NaCl (negative control) • CIDP mice receiving human AAT (AAT), 50 mg/kg per injection
Disease induction consisted in subcutaneous injection of mouse sciatic nerve homogenate in phosphate buffer saline (PBS)+Freund's adjuvant mixture at 10 mL/kg. For each treatment, 3 different body sites injections were performed. Control mice also received three subcutaneous injections of PBS+Freund's adjuvant at the same 3 different body sites.
On the first (Day 20) and last (Day 35) day of treatment, the neuromuscular and performance of animals was tested with a rotarod test, grip test and a sensory test using the Von Frey filament test, as well as sciatic nerve electrophysiology test. After the last treatment at Day 35, these tests were repeated, animals were sacrificed and the left sciatic nerve was sampled for histological evaluation of the number and size of […].

IL-6 = experiment: Human IL-6 immunoassay on SH-SY5Y cell supernatant; format: cell-based; details: medium from cells treated with AAT vs 6-OHDA induced, not significant
Description: Cells were treated for 24 hours with the neurotoxin 6-hydroxydopamine (6-OHDA, Sigma Aldrich 162957) at 50, 100 μM concentrations alone or in combination with AAT 25 μM (AAT plasma derived, Sigma Aldrich batch A9024). Cells treated with AAT alone or in combination with 6-OHDA for 24 hours, were then incubated with fresh AAT for additional 24 hours. Control cells were treated with PBS.
Human 11-6 immunoassay (R&D D6050) was performed on cells supernatant. Briefly, 40000 cells were plated in 24-well plate and treated the day after as described in paragraph “Cells and treatment”. At the end of the treatment, cells were washed with PBS and incubated with 2% FBS medium for 24 hours, then cell culture supernatants were collected and centrifuged to remove particulates. Assay procedure was performed as described by manufactured instructions, on standard and samples duplicates. Absorbance was measured at 450 nm using SpectraMax iD3 Microplate Reader. A standard curve was prepared from seven IL-6 standard dilutions and IL-6 sample concentrations determined.

[2] = Day 35, AAT 50 mg/kg sc twice daily

For alpha1-antitrypsin (AAT) protein, the “Rotarod latency, Mean/animal” value ([1]; 6 weeks old (baseline)) was 84.36 s and 71.19 s and 72.91 s, the “Rotarod latency, set 1, individual animals” value ([1]; 6 weeks old (baseline)) was 85.0 s and 51.4 s and 59.6 s and the “Rotarod latency, set 2, individual animals” value ([1]; 6 weeks old (baseline)) was 102.6 s and 93.4 s and 92.1 s. For the same substance, the “Rotarod latency, set 3, individual animals” value ([1]; 6 weeks old (baseline)) was 65.5 s and 68.8 s and 67.1 s, the “Rotarod latency, Mean/animal” value ([1]; 8 weeks old) was 49.76 s and 64.65 s and 56.12 s and the “Rotarod latency, set 1, individual animals” value ([1]; 8 weeks old) was 62.1 s and 83.2 s and 46.0 s. For the same substance, the “Rotarod latency, set 2, individual animals” value ([1]; 8 weeks old) was 35.7 s and 39.5 s and 46.0 s, the “Rotarod latency, set 3, individual animals” value ([1]; 8 weeks old) was 51.5 s and 71.3 s and 76.4 s and the “rotarod latency compared to the control group” value ([1]; CMT1A mice treated with AAT, 8 weeks old) was “improvement”. For the same substance, the “Rotarod latency (Mean ± SEM)” value ([1]; 6 weeks old (baseline)) was 76.15 ± 4.13 s, the “Rotarod latency (Mean ± SEM)” value ([1]; 8 weeks old, AAT 50 mg/kg sc twice daily) was 56.84 ± 4.31 s and the “NCV compared to the vehicle treated group” value (CIDP mice; CIDP + AAT 50 mg/kg sc twice daily) was “increase”. For the same substance, the “CMAP amplitude compared to the CIDP+vehicle treated group” value (CIDP mice; CIDP + AAT 50 mg/kg sc twice daily, Day 35) was “increase”, the “Compound muscle action potential (Mean ± SD)” value (CIDP mice; Day 20 (baseline)) was 3.73 ± 0.42 mV and the “Nerve conduction velocity (Mean ± SD)” value (CIDP mice; Day 20 (baseline)) was 13.10 ± 4.49 m/s. The “Compound muscle action potential (Mean ± SD)” value (CIDP mice; [2]) was 4.56 ± 0.76 mV, the “Nerve conduction velocity (Mean ± SD)” value (CIDP mice; [2]) was 16.85 ± 2.43 m/s and the “Electrophysiology, Amplitude, group MEAN” value (CIDP mice; Day 20) was 3.731 mV. The “Electrophysiology, Conduction velocity, group MEAN” value (CIDP mice; Day 20) was 13.098 m/s, the “Electrophysiology, Amplitude, group MEAN” value (CIDP mice; Day 35) was 4.558 mV and the “Electrophysiology, Conduction velocity, group MEAN” value (CIDP mice; Day 35) was 16.851 m/s. For the same substance, the “Electrophysiology, Amplitude” value (CIDP mice; Day 20) was 3.734 mV and 3.562 mV and 3.318 mV and 4.308 mV, the “Electrophysiology, Conduction velocity” value (CIDP mice; Day 20) was 16.096 m/s and 11.057 m/s and 7.775 m/s and 17.463 m/s and the “Electrophysiology, T1 distal” value (CIDP mice; Day 20) was 2.673 ms and 3.177 ms and 2.864 ms and 3.114 ms. The “Electrophysiology, T2 proximal” value (CIDP mice; Day 20) was 3.605 ms and 4.533 ms and 4.793 ms and 3.973 ms, the “Electrophysiology, Amplitude” value (CIDP mice; Day 35) was 3.490 mV and 5.146 mV and 5.068 mV and 4.527 mV and the “Electrophysiology, Conduction velocity” value (CIDP mice; Day 35) was 16.007 m/s and 16.112 m/s and 14.881 m/s and 20.402 m/s. The “Electrophysiology, T1 distal” value (CIDP mice; Day 35) was 4.089 ms and 3.902 ms and 4.177 ms and 3.970 ms, the “Electrophysiology, T2 proximal” value (CIDP mice; Day 35) was 5.026 ms and 4.833 ms and 5.185 ms and 4.705 ms and the “IL-6 in cell supernatant” value (IL-6) was “less concentration”.

Reference: patent publication US20260028390A1, “ALPHA1-ANTITRYPSIN FOR USE IN THE TREATMENT OF DISEASES OR DISORDERS OF THE NERVOUS SYSTEM SUCH AS CHRONIC INFLAMMATORY DEMYELINATING POLYNEUROPATHY” (Ageronix SA, priority 2022, published 2026)
